Measured values from US20250066388A1, “1,3,4,7-TETRAHYDRO-2H-PYRROLO[3',2':5,6]PYRIDO[2,3-B][1,4]OXAZEPINE BCL-2 INHIBITORS” (AbbVie Inc., priority 2022, published 2025).

Columns and labels:
Bcl-2 protein = Bcl-2 protein (Homo sapiens (Human), UniProt P10415); assay: TR-FRET binding assay, Bcl-2; conditions: F-Bak peptide probe, GST-Bcl-2
RS4;11 cells = assay: Cell viability assay (CellTiter-Glo) in RS4;11 cells; type: cell-based; conditions: 10% Human Serum
Procedure: (§1) The acute lymphoblastic leukemia (ALL) human cell line RS4;11 (ATCC, Manassas VA) was used as the primary human cell line to assess the cellular activity of compound of the present Examples in vitro and their efficacy in vivo. […] The acute lymphoblastic leukemia cell line Molt-4, which is derived from immature T-lymphoid cells (T-ALL), was used as a counter screen assay.
(§2) 3000 Cells (0.1×10^6/mL) were seeded in each well of 384-well plate and were treated for 24 hours in a humidified chamber with 5% CO2. Cell viability was determined by CellTiter-Glo as described by the manufacturer's instructions (Promega Corporation, Madison, WI, USA).

Bcl-xL protein = Bcl-xL protein (Homo sapiens (Human), UniProt Q07817); assay: TR-FRET binding assay, Bcl-xL; conditions: F-Bak peptide probe
Chain of Bcl-xL protein (Q07817 other isoform, or with tags, fused parts or gaps): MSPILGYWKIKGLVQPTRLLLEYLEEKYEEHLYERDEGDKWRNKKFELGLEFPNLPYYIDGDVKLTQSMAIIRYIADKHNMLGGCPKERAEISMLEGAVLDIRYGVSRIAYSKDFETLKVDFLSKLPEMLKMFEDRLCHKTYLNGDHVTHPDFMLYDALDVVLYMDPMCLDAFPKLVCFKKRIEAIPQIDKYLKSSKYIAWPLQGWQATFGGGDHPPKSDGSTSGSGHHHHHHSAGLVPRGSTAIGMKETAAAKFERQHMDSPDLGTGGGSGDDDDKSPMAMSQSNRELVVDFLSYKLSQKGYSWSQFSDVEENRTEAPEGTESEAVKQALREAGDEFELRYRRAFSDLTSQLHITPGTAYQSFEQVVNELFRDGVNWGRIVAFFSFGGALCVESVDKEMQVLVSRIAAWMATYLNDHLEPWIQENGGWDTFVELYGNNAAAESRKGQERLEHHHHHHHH

Molt-4 cells = assay: Cell viability counter screen (CellTiter-Glo) in Molt-4 cells; type: cell-based; conditions: 24 hours, 10% Human Serum
Procedure: as §1, §2

Chain of Bcl-2 protein (P10415 other isoform, or with tags, fused parts or gaps): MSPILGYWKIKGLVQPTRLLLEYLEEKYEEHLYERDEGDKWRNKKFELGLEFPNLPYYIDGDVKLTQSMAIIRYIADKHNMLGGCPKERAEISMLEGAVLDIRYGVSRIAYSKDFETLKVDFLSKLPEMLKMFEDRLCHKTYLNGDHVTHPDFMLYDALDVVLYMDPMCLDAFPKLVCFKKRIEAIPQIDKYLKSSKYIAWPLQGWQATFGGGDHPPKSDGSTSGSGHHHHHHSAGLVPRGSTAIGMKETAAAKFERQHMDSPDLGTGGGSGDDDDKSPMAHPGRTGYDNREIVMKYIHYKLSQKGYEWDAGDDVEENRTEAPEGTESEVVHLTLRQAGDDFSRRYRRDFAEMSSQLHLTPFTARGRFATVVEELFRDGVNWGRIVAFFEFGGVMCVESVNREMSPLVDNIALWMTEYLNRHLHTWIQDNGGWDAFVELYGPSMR

CC1(C)CC(c2ccc(Cl)cc2)=C2CN3CCN(c4ccc(C(=O)NS(=O)(=O)c5ccc(NCC6CCOCC6)c([N+](=O)[O-])c5)c(N5CCCOc6nc7[nH]ccc7cc65)c4)C[C@H]3COCCCO[C@@H]2C1 [Example 1, 4-((4aS,10aR)-14-(4-chlorophenyl)-12,12-dimethyl-1,2,4a,5,8,9,10a,11,13,15-decahydro-7H,12H-benzo[f]pyrazino[2,1-c][1,8]dioxa[4]azacycloundecin-3(4H)-yl)-2-(3,4-dihydro-2H-pyrrolo[3′,2′:5,6]pyrido[2,3-b][1,4]oxazepin-1(7H)-yl)-N-((3-nitro-4-(((tetrahydro-2H-pyran-4-yl)methyl)amino)phenyl)sulfonyl)benzamide]
Ki (Bcl-2 protein): 0.459 nM | EC50 (RS4;11 cells; 24 hours): 4.01 nM | Ki (Bcl-xL protein): 19.4 nM | EC50 (Molt-4 cells): > 10000 nM

CC1(C)CC(c2ccc(Cl)cc2)=C2CN3CCN(c4ccc(C(=O)NS(=O)(=O)c5ccc(NC[C@H]6CC[C@](C)(O)CO6)c([N+](=O)[O-])c5)c(N5CCCOc6nc7[nH]ccc7cc65)c4)C[C@H]3COCCCO[C@@H]2C1 [Example 2, 4-((4aS,10aR)-14-(4-chlorophenyl)-12,12-dimethyl-1,2,4a,5,8,9,10a,11,13,15-decahydro-7H,12H-benzo[f]pyrazino[2,1-c][1,8]dioxa[4]azacycloundecin-3(4H)-yl)-2-(3,4-dihydro-2H-pyrrolo[3′,2′:5,6]pyrido[2,3-b][1,4]oxazepin-1(7H)-yl)-N-((4-((((2R,5S)-5-hydroxy-5-methyltetrahydro-2H-pyran-2-yl)methyl)amino)-3-nitrophenyl)sulfonyl)benzamide]
Ki (Bcl-2 protein): 0.0489 nM | EC50 (RS4;11 cells; 24 hours): 0.651 nM | Ki (Bcl-xL protein): 9.3 nM | EC50 (Molt-4 cells): 1220 nM

C[C@@H]1CO[C@@H](CNc2ccc(S(=O)(=O)NC(=O)c3ccc(N4CCN5CC6=C(c7ccc(Cl)cc7)CC(C)(C)C[C@H]6OCCCOC[C@@H]5C4)cc3N3CCCOc4nc5[nH]ccc5cc43)cc2[N+](=O)[O-])CO1 [Example 6, 4-((4aS,10aR)-14-(4-chlorophenyl)-12,12-dimethyl-1,2,4a,5,8,9,10a,11,13,15-decahydro-7H,12H-benzo[f]pyrazino[2,1-c][1,8]dioxa[4]azacycloundecin-3(4H)-yl)-2-(3,4-dihydro-2H-pyrrolo[3′,2′:5,6]pyrido[2,3-b][1,4]oxazepin-1(7H)-yl)-N-((4-((((2S,5R)-5-methyl-1,4-dioxan-2-yl)methyl)amino)-3-nitrophenyl)sulfonyl)benzamide]
Ki (Bcl-2 protein): 0.438 nM | EC50 (RS4;11 cells; 24 hours): 1.55 nM | Ki (Bcl-xL protein): 5.62 nM | EC50 (Molt-4 cells): 1910 nM

CC1(C)CC(c2ccc(Cl)cc2)=C2CN3CCN(c4ccc(C(=O)NS(=O)(=O)c5ccc(NC[C@H]6CC[C@H](O)CO6)c([N+](=O)[O-])c5)c(N5CCCOc6nc7[nH]ccc7cc65)c4)C[C@H]3COCCCO[C@@H]2C1 [Example 12, 4-((4aS,10aR)-14-(4-chlorophenyl)-12,12-dimethyl-1,2,4a,5,8,9,10a,11,13,15-decahydro-7H,12H-benzo[f]pyrazino[2,1-c][1,8]dioxa[4]azacycloundecin-3(4H)-yl)-2-(3,4-dihydro-2H-pyrrolo[3′,2′:5,6]pyrido[2,3-b][1,4]oxazepin-1(7H)-yl)-N-((4-((((2R,5S)-5-hydroxytetrahydro-2H-pyran-2-yl)methyl)amino)-3-nitrophenyl)sulfonyl)benzamide]
Ki (Bcl-2 protein): 0.888 nM | EC50 (RS4;11 cells; Homo sapiens, RS4-11, 24 h): 0.966 nM | Ki (Bcl-xL protein): 6.13 nM | EC50 (Molt-4 cells): 823 nM

CC1(C)CC(c2ccc(Cl)cc2)=C2CN3CCN(c4ccc(C(=O)NS(=O)(=O)c5ccc(NCC6CCCCO6)c([N+](=O)[O-])c5)c(N5CCCOc6nc7[nH]ccc7cc65)c4)C[C@H]3COCCCO[C@@H]2C1 (stereo partly drawn) [Example 45, 4-((4aS,10aR)-14-(4-chlorophenyl)-12,12-dimethyl-1,2,4a,5,8,9,10a,11,13,15-decahydro-7H,12H-benzo[f]pyrazino[2,1-c][1,8]dioxa[4]azacycloundecin-3(4H)-yl)-2-(3,4-dihydro-2H-pyrrolo[3′,2′:5,6]pyrido[2,3-b][1,4]oxazepin-1(7H)-yl)-N-((3-nitro-4-(((tetrahydro-2H-pyran-2-yl)methyl)amino)phenyl)sulfonyl)benzamide]
EC50 (RS4;11 cells; 24 hours): 10.7 nM | EC50 (Molt-4 cells): > 10000 nM

COC[C@]1(F)C[C@H](CNc2ccc(S(=O)(=O)NC(=O)c3ccc(N4CCN5CC6=C(c7ccc(Cl)cc7)CC(C)(C)C[C@H]6OCCCOC[C@@H]5C4)cc3N3CCCOc4nc5[nH]ccc5cc43)cc2[N+](=O)[O-])C1 [Example 47, 4-((4aS,10aR)-14-(4-chlorophenyl)-12,12-dimethyl-1,2,4a,5,8,9,10a,11,13,15-decahydro-7H,12H-benzo[f]pyrazino[2,1-c][1,8]dioxa[4]azacycloundecin-3(4H)-yl)-2-(3,4-dihydro-2H-pyrrolo[3′,2′:5,6]pyrido[2,3-b][1,4]oxazepin-1(7H)-yl)-N-((4-((((1r,3r)-3-fluoro-3-(methoxymethyl)cyclobutyl)methyl)amino)-3-nitrophenyl)sulfonyl)benzamide]
EC50 (RS4;11 cells; 24 hours): 10.9 nM | EC50 (Molt-4 cells): > 10000 nM

CO[C@]1(CF)C[C@@H](CNc2ccc(S(=O)(=O)NC(=O)c3ccc(N4CCN5CC6=C(c7ccc(Cl)cc7)CC(C)(C)C[C@H]6OCCCOC[C@@H]5C4)cc3N3CCCOc4nc5[nH]ccc5cc43)cc2[N+](=O)[O-])C1 [Example 48, 4-((4aS,10aR)-14-(4-chlorophenyl)-12,12-dimethyl-1,2,4a,5,8,9,10a,11,13,15-decahydro-7H,12H-benzo[f]pyrazino[2,1-c][1,8]dioxa[4]azacycloundecin-3(4H)-yl)-2-(3,4-dihydro-2H-pyrrolo[3′,2′:5,6]pyrido[2,3-b][1,4]oxazepin-1(7H)-yl)-N-((4-((((1r,3r)-3-(fluoromethyl)-3-methoxycyclobutyl)methyl)amino)-3-nitrophenyl)sulfonyl)benzamide]
EC50 (RS4;11 cells; 24 hours): 18.1 nM | EC50 (Molt-4 cells): 5840 nM

CC1(C)CC(c2ccc(Cl)cc2)=C2CN3CCN(c4ccc(C(=O)NS(=O)(=O)c5ccc(OC[C@H]6CC[C@@](C)(O)CC6)c([N+](=O)[O-])c5)c(N5CCCOc6nc7[nH]ccc7cc65)c4)C[C@H]3COCCCO[C@@H]2C1 [Example 49, 4-((4aS,10aR)-14-(4-chlorophenyl)-12,12-dimethyl-1,2,4a,5,8,9,10a,11,13,15-decahydro-7H,12H-benzo[f]pyrazino[2,1-c][1,8]dioxa[4]azacycloundecin-3(4H)-yl)-2-(3,4-dihydro-2H-pyrrolo[3′,2′:5,6]pyrido[2,3-b][1,4]oxazepin-1(7H)-yl)-N-((4-(((1s,4s)-4-hydroxy-4-methylcyclohexyl)methoxy)-3-nitrophenyl)sulfonyl)benzamide]
EC50 (RS4;11 cells; 24 hours): 25 nM | EC50 (Molt-4 cells): 36 nM

CO[C@@H]1CC[C@@H](COc2ccc(S(=O)(=O)NC(=O)c3ccc(N4CCN5CC6=C(c7ccc(Cl)cc7)CC(C)(C)C[C@H]6OCCCOC[C@@H]5C4)cc3N3CCCOc4nc5[nH]ccc5cc43)cc2[N+](=O)[O-])OC1 [Example 51, 4-((4aS,10aR)-14-(4-chlorophenyl)-12,12-dimethyl-1,2,4a,5,8,9,10a,11,13,15-decahydro-7H,12H-benzo[f]pyrazino[2,1-c][1,8]dioxa[4]azacycloundecin-3(4H)-yl)-2-(3,4-dihydro-2H-pyrrolo[3′,2′:5,6]pyrido[2,3-b][1,4]oxazepin-1(7H)-yl)-N-((4-(((2S,5R)-5-methoxytetrahydro-2H-pyran-2-yl)methoxy)-3-nitrophenyl)sulfonyl)benzamide]
EC50 (RS4;11 cells; 24 hours): 9.6 nM | EC50 (Molt-4 cells): > 10000 nM
